Data published in patent publication US20030109699A1, “Amphiphilic quinolylpolyamines as transfer agents for biologically active macromolecules” (priority 1999, published 2003).

Legend:
[1] = test system: different tumor cell lines (HeLa, Hec1a, SKOV3, MCF-7, Hey, SKBR3); conditions: lipids mixed with DOPE; all tested cell lines; versus Transfectam, Lipofectamine and DC-Chol; GFP and beta-galactosidase reporter plasmids; FIGS. 5 and 6
Excerpt: In general: The cell lines used HeLa, Hec1a, SKOV3, MCF-7, Hey, SKBR3, T47D, 293 were cultivated according to standard ATCC conditions. Commercial transfection reagents Transfectam®, Lipofectamine™ und Superfect were used according to the manufacturer's instructions. DC-Chol was synthesized as described previously [L. Huang et al. Biochem. Biophys. Res. Commun. 179(1) (1991) 280-285] and was formulated with DOPE for the transfection experiments.
The day before the transfection 40-50000 cells were seeded per well in a 24-well cell culture plate (appr. 70% confluence). For the preparation of the complexes 3 μl (for SKBR3, MCF-7, Hey) respectively 6 μl (for HeLa, Hec1a, SKOV3) of the aqueous lipid reagent (30 mol % lipid #2 respectively #7 respectively #9; 70 mol % DOPE) were added to a solution of each 2 μg of the plasmid-DNA (pEGFP-N1; Clontech Laboratories, Inc; Katalog-Nr. 6085-1) in 300 μl of fcs-free medium and were incubated at room temperature for 30 min. Shortly before the transfection the cell culture medium was replaced with 700 μl fresh medium (14.3% fcs). After addition of the lipid-DNA complexes and incubation of the cells for 48 hours the percentage of GFP expressing fluorescent cells was determined by FACS-analysis. For this the cells were washed with PBS and were separated by trypsination and subsequent centrifugation. The thus obtained cell pellet was resuspended in 500 μl PBS and the percentage of fluorescent cells was determined by FACS-analysis using a FACScan device (Becton Dickinson).

[2] = test system: breast tumor cells MCF7; conditions: FIG. 9; for transfection efficiency with pEGFP-N1-plasmid compared with Transfectam: mixtures with 70 mol % DOPE in ethanolic solutions, MCF7; for percentage of transfected cells after pre-complexing of the DNA with protamine sulfate: mixtures with 70 mol % DOPE, ethanolic, DNA pre-complexed with protamine sulfate versus not
Protocol: The day before the transfection 40-50000 cells were seeded per well in a 24-well cell culture plate (appr. 70% confluence). For the preparation of the complexes 4 μl of the ethanolic lipid reagent (30 mol % lipid #2 respectively #7; 70 mol % DOPE) were added to a solution of each 2 μg of the plasmid-DNA (pEGFP-N1; Clontech Laboratories, Inc; catalog-nr. 6085-1) in 300 μl fcs-free medium and were incubated at room temperature for 30 min. For the transfection in the presence of protamine sulfate 2 μg plasmid-DNA was pre-complexed with 2 μg protamine sulfate in 300 μl serum free medium for 10 min whereupon 4 μl of the lipid reagent were added. Shortly before the transfection the cell culture medium was replaced with 700 μl fresh medium (14.3% fcs). After addition of the lipid-DNA complexes and incubation of the cells for 48 hours the percentage of GFP expressing fluorescent cells was determined by FACS-analysis as described above.

[3] = test system: eucaryotic cells; conditions: 10-100 μM chloroquine added to the cell culture medium; cited from earlier work

## CCN(CC)CCN(CCNc1ccnc2cc(Cl)ccc12)C(=O)O[C@H]1CC[C@@]2(C)C(=CC[C@H]3[C@@H]4CC[C@H]([C@H](C)CCCC(C)C)[C@@]4(C)CC[C@@H]32)C1.Cl [#2, 7-chloro-4-[N^1-(N^4-carboxycholesteryl)-(N^7-diethyl)-1,4,7-triaza-heptyl]-quinoline Hydrochloride]
[1]
  transfection efficiency compared with known lipid formulations: higher efficiency
[2]
  transfection efficiency with pEGFP-N1-plasmid compared with Transfectam: significantly more efficient
  percentage of transfected cells after pre-complexing of the DNA with protamine sulfate: significant increase

## CC(C)CCC[C@@H](C)[C@H]1CC[C@H]2[C@@H]3CC=C4C[C@@H](OC(=O)N(CCCNc5ccnc6cc(Cl)ccc56)CCN(C)C)CC[C@]4(C)[C@H]3CC[C@]12C.Cl [#7, 7-chloro-4-[N^1-(N^5-carboxycholesteryl)-(N^8-dimethyl)-1,5,8-triaza-octyl]-quinoline Hydrochloride]
[1]
  transfection efficiency compared with known lipid formulations: higher efficiency
[2]
  transfection efficiency with pEGFP-N1-plasmid compared with Transfectam: significantly more efficient
  percentage of transfected cells after pre-complexing of the DNA with protamine sulfate: significant increase

## CCCCCCCC/C=C\CCCCCCCC(=O)OC[C@@H](CN(CCCNc1ccnc2cc(Cl)ccc12)CCN(C)C)OC(=O)CCCCCCC/C=C\CCCCCCCC [#9, 7-chloro-4-[N^1-(N^5-(2(R),3-dioleoyloxy)propyl)-(N^8-dimethyl)-1,5,8-triaza-octyl]-quinoline]
[1]
  transfection efficiency compared with known lipid formulations: higher efficiency

## CCN(CC)CCCC(C)Nc1ccnc2cc(Cl)ccc12 (centres unmarked) [chloroquine]
[3]
  effect on the efficiency of the cationic amphiphiles: significantly increases the efficiency
